TGI data for 15 compounds are collected here from PubChem BioAssay (NCI).

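Tested at 5 concentrations; 48 h exposure; 96-well plates; endpoints linearly interpolated, else capped at highest concentration. TGI: total growth inhibition.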 Some results are limits rather than exact numbers.

Assay in all cases: growth of human tumour cells (NCI), 48 h
Experiment [1] deals with CAKI-1 renal.
Experiment [2] deals with CCRF-CEM leukemia.
Experiment [3] deals with HCT-116 colon.
The test system of experiment [4] is HL-60(TB) leukemia.
Experiment [5] has as its system IGROV1 ovarian.
Experiment [6] deals with MCF7 breast.
In experiment [7] the test system is MDA-N.
Experiment [8] concerns NCI-H460 lung.
For experiment [9], the system named is OVCAR-4 ovarian.
Experiment [10] relates to OVCAR-5 ovarian.
Experiment [11] deals with OVCAR-8 ovarian.
Experiment [12] has as its system PC-3 prostate.
Experiment [13] concerns RXF 393 renal.
Experiment [14] concerns SK-MEL-2 melanoma.
Experiment [15] relates to SN12C renal.
Experiment [16] concerns SW-620 colon.
For experiment [17], the system named is U251 CNS.
Experiment [18] has as its system UO-31 renal.

Regarding `Cc1c(O)c(OC2OC(CO)C(O)C(O)C2O)cc2c1C=C[C@@H]1[C@@]2(C)C(=O)C[C@]2(C)[C@@H]([C@@](C)(O)C(O)/C=C/C(C)(C)O)[C@H](O)C[C@@]12C` (stereo not given in full), the TGI in experiment [1], in [2], in experiment [3], in experiment [4], in [5] and in experiment [6] was greater than 100 µM throughout. For the same compound, the TGI in [7], in experiment [8], in [9], in [10], in experiment [11] and in experiment [12] was greater than 100 µM throughout. The TGI in experiment [13], in experiment [14], in experiment [15], in experiment [16], in experiment [17] and in experiment [18] was greater than 100 µM in each case.
Take `COc1cccc2c1C1(O)C2CCCCCCCCCC12OCCCO2` (stereo not given): the TGI is greater than 100 µM in experiment [1]; greater than 92.4 µM in experiment [2]; greater than 100 µM in experiment [3]; greater than 47.8 µM in experiment [4]; greater than 100 µM in experiment [5]; greater than 100 µM in experiment [6]. Also, the TGI in [7] was greater than 100 µM; in experiment [8] it was greater than 59.5 µM; in [9] it was greater than 100 µM; in experiment [10], greater than 100 µM; in [11], greater than 100 µM; in experiment [12], greater than 100 µM. For the same compound, the TGI was greater than 100 µM in [13]; greater than 73.2 µM in experiment [14]; greater than 100 µM in experiment [15]; greater than 100 µM in experiment [16]; greater than 100 µM in [17]; greater than 100 µM in experiment [18].
As to `CN(C)CCNCc1ccc2c(-c3ccccc3)nc3cc(Cl)c(Cl)cc3n12`, the TGI was determined as 18.9 µM in [1]; 29.4 µM in experiment [2]; 16.3 µM in experiment [3]; 11.6 µM in experiment [4]; 22.6 µM in [5]; 19.1 µM in [6]. In addition, the TGI in experiment [7] was 23.4 µM; in [8] it was 23.9 µM; in experiment [9] it was 26.7 µM; in [10], 26.1 µM; in experiment [11], 27.7 µM; in experiment [12], 27.3 µM. In addition, the TGI in experiment [13] was 10 µM; in experiment [14], 20.6 µM; in experiment [15], 24.2 µM; in experiment [16], 28.3 µM; in experiment [17], 22.7 µM; in experiment [18], 14.7 µM.
In the case of `O=C1c2c(Br)sc(Br)c2[C@@H](Cl)[C@H]1Cl`, the TGI amounted to 38.8 µM in experiment [1]; 35.9 µM in [2]; 48.8 µM in experiment [3]; 20.5 µM in experiment [4]; 42 µM in experiment [5]; 53.5 µM in experiment [6]. Moreover, the TGI in experiment [7] stood at 40.3 µM; in [8], 40.9 µM; in experiment [9], 37.4 µM; in experiment [10], 43 µM; in experiment [11], 42.5 µM; in experiment [12], 38.9 µM. The TGI in experiment [13] was 30.7 µM; in experiment [14], 37.7 µM; in experiment [15], 36.7 µM; in [16], greater than 100 µM; in experiment [17], 34.8 µM; in experiment [18], 40.4 µM.
Consider `O=[N+]([O-])c1ccc(-n2nc3ccc4c(no[n+]4[O-])c3[n+]2[O-])c([N+](=O)[O-])c1`, for which the TGI in [1] is 6.06 µM; in [2], 3.68 µM; in [3] it was 3.74 µM; in experiment [4], 5.43 µM; in experiment [5], 3.4 µM; in experiment [6], 3.98 µM. Further, the TGI was found to be 4.47 µM in [7]; 40.6 µM in experiment [8]; 3.19 µM in experiment [9]; 17 µM in experiment [10]; 6.05 µM in experiment [11]; 20.7 µM in experiment [12]. Also, the TGI in experiment [13] came to 5.37 µM; in [14], 9.92 µM; in experiment [15], 7.03 µM; in experiment [16] it was 5.4 µM; in experiment [17], 7.6 µM; in [18], 13.2 µM.
For the compound `c1ccc2c(c1)nn1c3ccc4nonc4c3[n-][n+]21`, the TGI in experiment [1], in experiment [2], in experiment [3], in experiment [4], in experiment [5] and in experiment [6] was greater than 100 µM throughout. Moreover, the TGI in experiment [7], in [8], in experiment [9], in experiment [10], in experiment [11] and in experiment [12] was greater than 100 µM throughout. In addition, the TGI in experiment [13], in experiment [14], in experiment [15], in experiment [16], in experiment [17] and in experiment [18] was greater than 100 µM in each case.
Take `COc1ccc(C2C(C#N)=C(S)N(C3OC(COC(C)=O)C(OC(C)=O)C(OC(C)=O)C3OC(C)=O)C(C)=C2C(C)=O)cc1` (stereo not given): the TGI in [1], in experiment [2], in experiment [3], in experiment [4], in [5] and in experiment [6] was greater than 100 µM in each case. The TGI in experiment [7], in experiment [8], in experiment [9], in experiment [10], in [12] and in [13] was greater than 100 µM in each case. Also, the TGI in [14], in experiment [15], in [16], in experiment [17] and in [18] was greater than 100 µM throughout.
As for `O=C1C[C@H](COCc2ccccc2)NC(=O)C[C@H](COCc2ccccc2)NC(=O)C[C@H](COCc2ccccc2)N1`, the TGI in experiment [1], in experiment [2], in experiment [3], in [4], in experiment [5] and in experiment [6] was greater than 100 µM in each case. In addition, the TGI in experiment [7], in experiment [8], in [9], in experiment [10], in [11] and in experiment [12] was greater than 100 µM each time. Further, the TGI in experiment [13] is 27.1 µM; in experiment [14] it was greater than 100 µM; in [15] it was greater than 100 µM; in [16] it was greater than 100 µM; in [17], greater than 100 µM; in experiment [18], greater than 100 µM.
For the compound `C[C@@H]1[C@H](O)CC2=C(CC[C@@H](O)C2(C)C)[C@@]1(CO)CCc1ccoc1`, the TGI in experiment [1], in [2], in experiment [3], in experiment [4], in experiment [5] and in experiment [6] was greater than 50 µM in each case. The TGI in [7], in [8], in experiment [9], in experiment [10], in [11] and in [12] was greater than 50 µM in each case. Moreover, the TGI in [13], in experiment [14], in [15], in experiment [16], in experiment [17] and in experiment [18] was greater than 50 µM in each case.
Take `COc1ccc(/C=C2\C[C@H]3[C@@H]4CC=C5C[C@@H](OC(C)=O)CC[C@]5(C)[C@H]4CC[C@]3(C)\C2=N\O)cc1OC`: the TGI in experiment [1], in experiment [2], in experiment [3], in [4], in experiment [5] and in experiment [6] was greater than 100 µM in each case. Also, the TGI in [7], in experiment [8], in [9], in experiment [10], in [11] and in [12] was greater than 100 µM each time. Besides, the TGI was greater than 100 µM in [13]; greater than 100 µM in experiment [14]; greater than 100 µM in experiment [15]; greater than 100 µM in [16]; 91.6 µM in experiment [18].
Consider `COC1CC(OC2CCC3(C)C(=CCC4C3C(OC(C)=O)C(OC(=O)CC(C)C)C3(C)C(C(C)=O)CCC43O)C2)OC(C)C1OC1CC(OC)C(OC2CC(OC)C(OC3OC(C)C(O)C(OC)C3O)C(C)O2)C(C)O1` (stereo not given), for which the TGI in experiment [1] was greater than 100 µM; in experiment [2], 72.6 µM; in [3], 60.6 µM; in experiment [4], 74.5 µM; in [5], greater than 100 µM; in experiment [6], 93.6 µM. Besides, the TGI in [7], in experiment [8], in [9], in experiment [10], in [11] and in experiment [12] was greater than 100 µM throughout. Further, the TGI is 47.2 µM in [13]; 93.3 µM in experiment [14]; greater than 100 µM in [15]; 94.7 µM in experiment [16]; greater than 100 µM in experiment [17]; greater than 100 µM in [18].
Regarding `O=c1[nH]nc(-c2ccccc2)n1/N=C/c1ccco1`, the TGI in experiment [1], in experiment [2], in experiment [3], in [4], in experiment [5] and in experiment [6] was greater than 100 µM in each case. The TGI in experiment [7], in [8], in experiment [9], in [10], in experiment [11] and in experiment [12] was greater than 100 µM throughout. The TGI in experiment [13], in experiment [14], in experiment [15], in experiment [16], in experiment [17] and in experiment [18] was greater than 100 µM in each case.
On to `c1csc(-c2nccc3c2[nH]c2ccccc23)c1`, for which the TGI in [1] was 71.5 µM; in experiment [2], 51.5 µM; in experiment [3], 31.8 µM; in experiment [4], 55.9 µM; in [5], 37.4 µM; in experiment [6], 20.8 µM. Besides, the TGI in experiment [7] was 35.4 µM; in experiment [8], 57 µM; in experiment [9], 55.1 µM; in experiment [10], 85.5 µM; in experiment [11], 42.8 µM; in [12] it was 61.3 µM. Also, the TGI amounted to 36.1 µM in experiment [13]; 41.8 µM in experiment [14]; 38.8 µM in experiment [15]; 46.3 µM in [16]; 75.9 µM in experiment [17].
Turning to `CCN(CC)Cc1ccccc1CC(=O)N1c2ccccc2C(=O)Nc2cccnc21`, the TGI in [1], in [2], in experiment [3], in experiment [4], in [5] and in experiment [6] was greater than 100 µM each time. The TGI in [7], in [8], in experiment [9], in [10], in experiment [11] and in experiment [12] was greater than 100 µM in each case. The TGI in experiment [13], in experiment [14], in experiment [15], in [16] and in [17] was greater than 100 µM each time.
On to `O=C(CC(O)(C(F)(F)F)C(F)(F)Cl)CC(O)(C(F)(F)F)C(F)(F)Cl` (stereo not given), for which the TGI in [1] was greater than 10 µM; in experiment [2] it was greater than 10 µM; in [3], 5.31 µM; in experiment [4] it was greater than 10 µM; in experiment [5], greater than 10 µM; in [6], greater than 10 µM. For the same compound, the TGI in [7] was greater than 10 µM; in experiment [8] it was 8.85 µM; in [9] it was greater than 10 µM; in experiment [11] it was greater than 10 µM; in experiment [12], 7.37 µM; in experiment [13], 6.58 µM. For the same compound, the TGI in experiment [14] is 4.15 µM; in [15], 9.8 µM; in experiment [16], greater than 10 µM; in experiment [17] it was 8.39 µM; in experiment [18], greater than 10 µM.
